The values that follow come from patent US4666900A, “Anti-ulcer and anti-hypersecretion dibenzoimidazothiazepine derivatives, compositions, and method of use therefor” (John Wyeth & Brother Ltd., priority 1985, dated 1987).

SMILES strings stand for the structures. Where two headings read alike, the source gives them in different places.

For this assay, the system named is rabbit isolated gastric glands. Briefly: Inhibition of secretagogue-stimulated C-aminopyrine uptake in rabbit isolated gastric glands (anti-secretory activity, H+/K+ ATPase). The class given is cell-based. The note with it: 10^-4 M test compound, % inhibition of maximum response to secretagogue; for inhibition at 100 µM: Oryctolagus cuniculus. Here is the method: Compounds of formula I were tested for anti-secretory activity by their ability to inhibit the effect of one or two secretagogues on isolated gastric glands.
Potential inhibitors of the highly specific proton transporting enzyme H^+ /K^+ ATPase were evaluated by a technique involving the measurement of aminopyrine accumulation in rabbit isolated gastric glands. Aminopyrine accumulates in acid-secreting cells; therefore, uptake of aminopyrine is increased by secretagogues and an inhibitor of acid secretion will reduce the response to one or more secretagogues depending upon its site of action. Compounds which reduce the response to dibutyryl cyclic adenosine monophosphate (DBcAMP) stimulation are assumed to have an intracellular site of action, and those which reduce the response to both DBcAMP and high potassium ion concentration (K^+) are thought to have an intracellular site of action at the secretory surface of the parietal cell, involving the highly specific proton-transporting enzyme, H^+ /K^+ ATPase.
The following procedure is used:
Rabbit glands are isolated from gastric mucosa from the corpus region of the stomach by a method based on one described by Berglindh T., Obrink K. J., Acta Physiol. Scand. 96, 150-159 (1976). Measurement of aminopyrine uptake is carried out using a procedure based on the method described by Berglindh T., Hellander H. F., Obrink K. J. (ibid. 97 401-414, 1976).
Compounds are tested at a concentration of 10^-4 M, for their ability to inhibit C-aminopyrine uptake in gastric glands, stimulated by DBcAMP and high K^+ respectively. Results are expressed as the % inhibition of the maximum response to the secretagogue induced by the test compound.

Where [1] appears, read: high K+-stimulated aminopyrine uptake, read-out: % Inhibition to stimulation by: k+.
Setting [2] is: DBcAMP-stimulated aminopyrine uptake, read-out: % Inhibition to stimulation by: DBcAMP.

Turning to `Cc1cc2nc3n(c2cc1C)Cc1ccccc1CS3` [8,13-Dihydro-4,5-dimethyldibenzo[d,h]imidazo[2,1-b][1,3]thiazepine], the “% Inhibition to stimulation by: DBcAMP” value (DBcAMP-stimulated aminopyrine uptake) is “ns”. Also, the inhibition at 100 µM under setting [1] is 80%.

Consider `[O-][S+]1Cc2ccccc2Cn2c1nc1ccccc12` (stereo not drawn) [8,13-Dihydrodibenz[d,h]imidazo[2,1-b][1,3]thiazepine-1-oxide], for which the “% Inhibition to stimulation by: k+” value (high K+-stimulated aminopyrine uptake) is “ns”. Under setting [2], the inhibition at 100 µM turned out to be 31%.

As to `c1ccc2c(c1)CSc1nc3ccccc3n1C2` [8,13-Dihydrodibenzo[d,h]imidazo[2,1-b][1,3]thiazepine], the inhibition at 100 µM by setting is: under setting [2], 32%; under setting [1], 94%.
